# Test results published in patent publication US9649392B2, “Central nervous system labelling composition for intranasal administration and labelling method and screening method using central nervous system labelling composition for intranasal administration” (CANON KABUSHIKI KAISHA, priority 2009, dated 2017).
# Test system: central nervous system of the zebrafish
# Assay: dyeing of the central nervous system of juvenile zebrafish after exposure to dye solution, fluorescence/confocal microscope observation over time
# Assay type: in vivo
# Settings: 7 dpf juvenile zebrafish; for dyeing of nerve cells of the central nervous system: confocal microscope; for dyed state of the central nervous system (transfer of dyeability with time from nasal cavity via olfactory bulb): left 1 hour, washed, observed at time intervals
# Description: Distilled water was added to a 1 mg/mL DMSO solution of compound 1 (as expressed by the formula (5) above) to obtain a dye solution 1 containing the compound 1 to a concentration of 200 ng/mL. 1 mL of the dye solution 1 and a 7-day-old (7 dpf) juvenile fish of zebrafish were put into an arbitrarily selected well of a 24-hole multi plate (available from IWAKI) and left there for an hour. Thereafter, the dye solution 1 in the well was removed and an operation of replacing it with 1 mL of distilled water was repeated three times in ten minutes. The elapsed time after the last solution replacing operation was measured and the juvenile fish was taken out from the well when a predetermined time period had elapsed. The juvenile fish was buried in 5% low melting-point agarose gel on a glass slide to restrict any movement and the dyed state of the central nervous system of the zebrafish was observed from a lateral side and the vertex by using fluorescent microscope (MZ16FA: available from Leica). The central nervous system was observed by means of a confocal microscope (Pascal Exciter: available from Zeiss). After the observation, the zebrafish was returned into the well and repeatedly observed thereafter at regular time intervals. […]
smiles,measurement,setting,value
CCN1/C(=C\C=C\C2=[N+](CC)c3ccccc3C23CCCCC3)C2(CCCCC2)c2ccccc21 [compound 1],dyeing of nerve cells of the central nervous system,dye solution 200 ng/mL,nerve cells of the central nervous system were also dyed
same,dyed state of the central nervous system (transfer of dyeability with time from nasal cavity via olfactory bulb),dye solution 200 ng/mL,"firstly the nasal cavity, then the olfactory bulb and finally the central nervous system were sequentially dyed"
CC/N=c1\cc2oc3cc(NCC)c(C)cc3c(-c3ccccc3C(=O)OCC)c-2cc1C [compound 2],dyeing of nerve cells of the central nervous system,dye solution 500 ng/mL,nerve cells of the central nervous system were also dyed
same,dyed state of the central nervous system (transfer of dyeability with time from nasal cavity via olfactory bulb),dye solution 500 ng/mL,"firstly the nasal cavity, then the olfactory bulb and finally the central nervous system were sequentially dyed"
CCN1c2ccc(/C=C/C3=[N+](CC)c4ccc(OC)cc4C34CCCCC4)cc2C2CCCC21 (stereo not drawn) [compound 3],dyeing of nerve cells of the central nervous system,dye solution 500 ng/mL,nerve cells of the central nervous system were also dyed
same,dyed state of the central nervous system (transfer of dyeability with time from nasal cavity via olfactory bulb),dye solution 500 ng/mL,"firstly the nasal cavity, then the olfactory bulb and finally the central nervous system were sequentially dyed"
